For one compound, mean tumor volume results are on record in patent US20230149381A1, “BREAST CANCER THERAPEUTIC AGENT” (Eisai R&D Management Co., Ltd., priority 2020, published 2023).

Experiment [1] concerns human breast cancer patient-derived tumor (OD-BRE-0438). Nature of the experiment: Growth inhibition effect of compound A after palbociclib and fulvestrant administration, patient-derived tumor graft in mice. Format: in vivo. Conditions: NOD-SCID mice, after 14 days palbociclib + fulvestrant. The procedure:
Example 1 Growth inhibition effect of compound A after palbociclib and fulvestrant administration for human breast cancer patient-derived tumor (OD-BRE-0438) Using NOD-SCID mice (NOD.CB17-Prkdcscid/J, female, Charles River Japan), with 5 to 6 mice per group, the antitumor effect of administering compound A after completion of an administration period with palbociclib and fulvestrant was evaluated.
OD-BRE-0438 is a tumor line from an estrogen receptor-positive breast cancer patient, established by Oncodesign Co. The tumor slices were grafted under the mouse skin and subcultured. The tumors excised from the mice were cut to about 4 mm-square, and a trocar (φ3.5 mm) was used for grafting under the skin of the right flank of each mouse.
A 1 mg/mL solution of β-estradiol (FujiFilm-Wako) was prepared with 99.5% ethanol (FujiFilm-Wako). It was then adjusted to a final concentration of 2.5 μg/mL using supply-use sterilized water. The mouse were given free access to food from the day of tumor grafting until the end of the test.
(§1) The long and short diameters of the tumors were measured using an electronic digital caliper (Digimatic™ caliper by Mitsutoyo Corp.). The tumor volumes were calculated by the following formula.
(§2) Tumor volume (mm^3)=Long diameter (mm)×short diameter (mm)×short diameter (mm)/2
Commercially available palbociclib isethionate (Selleck Chemicals) was adjusted to 10 mg/mL concentration with 50 mM sodium lactate buffer (pH 4.0). A commercially available fulvestrant formulation (trade name: Faslodex Intramuscular Injection 250 mg, by AstraZeneca) was used directly.
Palbociclib and fulvestrant administration was initiated from the 26th day after tumor grafting. Palbociclib was orally administered once per day for 14 days at a dosage of 100 mg/kg (10 mL/kg). Fulvestrant was hypodermically injected on the 26th and 33rd day, at a dosage of 250 mg/kg (5 mL/kg).
On the 40th day, the mice were divided into groups in such a manner that the average tumor volumes were approximately the same in each group. The control group consisted of 6 mice, and the compound A-administered group consisted of 5 mice, at different dosages.
Compound A was dissolved in purified water to a concentration of 2.5 mg/mL. Compound A was orally administered to the mice in each group at a dose of 25 mg/kg (10 mL/kg) or 50 mg/kg (20 mL/kg), once per day for 14 days. The control group was untreated.
The tumor volume and body weight of each mouse were measured on day 3, 7, 10 and 14 after starting administration of compound A. The changes in mean tumor volume in each group are shown in Table 1 and FIG. 1.

In experiment [2] the test system is human breast cancer patient derived tumor (OD-BRE-0438). As to the kind of experiment: Growth inhibiting effect of compound A on patient-derived tumor graft in mice (Reference Example 1, no pretreatment). Conditions: NOD-SCID mice. The experiment is classed as in vivo. The procedure:
as §1, §2
Reference Example 1 Growth inhibiting effect of compound A on human breast cancer patient derived tumor (OD-BRE-0438)
The antitumor effect of administering compound A was evaluated using NOD-SCID mice (NOD.CB17-Prkdcscid/J, female, Charles River Japan), with 6 mice per group.
Tumor slices were grafted under the mouse skin and subcultured. The tumors excised from the mice were cut to about 4 mm-square, and a trocar ((φ3.5 mm) was used for grafting under the skin of the right flank of each mouse, for evaluation of the antitumor effect.
A 1 mg/mL solution of β-estradiol (FujiFilm-Wako) was prepared with 99.5% ethanol (FujiFilm-Wako). It was then adjusted to a final concentration of […] using supply-use sterilized water. The mice were given free access to food from the day of tumor grafting until the end of the test.
Compound A was dissolved in purified water to a concentration of 2.5 mg/mL. On the 32nd day after tumor grafting, the mice were divided into groups in such a manner that the average tumor volumes were approximately the same in each group. The tumor volumes were calculated by the same method as Example 1.
Compound A was orally administered to the mice in each group at a dose of 50 mg/kg (20 mL/kg), once per day for 14 days. The control group was untreated.
The tumor volume and body weight of each mouse were measured on day 3, 7, 10 and 14 after starting administration of compound A. The changes in mean tumor volume in each group are shown in Table 2 and FIG. 2.

[3] abbreviates: Day 0 (baseline at grouping), compound A 50 mg/kg oral once per day.
Setting [4] is: Day 3, compound A 50 mg/kg oral once per day.
[5] abbreviates: Day 7, compound A 50 mg/kg oral once per day.
Setting [6] is: Day 10, compound A 50 mg/kg oral once per day.
Where [7] appears, read: Day 14, compound A 50 mg/kg oral once per day.

Regarding `CNC(=O)n1ccc2cc(Oc3ccnc(NC(=O)c4ccc(C5CCN(CCO)CC5)cc4)c3)c(OCCOC)cc21` [Compound A, 5-((2-(4-(1-(2-hydroxyethyl)piperidin-4-yl)benzamide)pyridin-4-yl)oxy)-6-(2-methoxyethoxy)-N-methyl-1H-indole-1-carboxamide], the mean tumor volume in experiment [1] (Day 0 (baseline at grouping), compound A 25 mg/kg oral once per day) is reported as 261.4 mm^3; in experiment [1] (setting [3]) it was 262.6 mm^3; in experiment [1] (Day 3, compound A 25 mg/kg oral once per day) it was 211.9 mm^3; in experiment [1] (setting [4]), 174.8 mm^3; in experiment [1] (Day 7, compound A 25 mg/kg oral once per day) it was 167.6 mm^3; in experiment [1] (setting [5]), 136.1 mm^3. Moreover, the mean tumor volume in experiment [1] (Day 10, compound A 25 mg/kg oral once per day) was found to be 138.3 mm^3; in experiment [1] (setting [6]), 110.4 mm^3; in experiment [1] (Day 14, compound A 25 mg/kg oral once per day), 134.1 mm^3; in experiment [1] (setting [7]) it was 96.6 mm^3; in experiment [2] (setting [3]) it was 234.1 mm^3; in experiment [2] (setting [4]) it was 267.0 mm^3. Further, the mean tumor volume in experiment [2] (setting [5]) turned out to be 338.8 mm^3; in experiment [2] (setting [6]) it was 380.8 mm^3; in experiment [2] (setting [7]) it was 403.4 mm^3.
